The record followed here is patent US8288380B2, “Thiophenediamine derivative having urea structure” (Santen Pharmaceutical Co., Ltd., priority 2008, dated 2012).

SMILES strings stand for the structures.

Assay [1] has as its system HDAC (HeLa nuclear extract). Briefly: Test for evaluation of HDAC inhibitory activity (HDAC Fluorimetric Assay/Drug Discovery Kit, Biomol). In kind it is biochemical. To be noted: final concentration of the test compound 30 μM, values more than 100% shown as 100%. The procedure: Using HDAC Fluorimetric Assay/Drug Discovery Kit (manufactured by Biomol), HDAC inhibitory activity of the present compounds was measured according to the protocol included with the kit. The kit contains Buffer, HeLa nuclear extract (includes HDAC), Substrate, Developer and Trichostatin A HDAC inhibitor).
A test compound was dissolved in dimethyl sulfoxide (hereinafter referred to as “DMSO”), whereby a 2 mg/mL solution was prepared. Then, the resulting solution was diluted with Buffer containing 5% DMSO, whereby a 150 μM test compound solution was prepared.
1) To a 384-well culture plate, the test compound solution was added in an amount of 2 μL per well.
2) HeLa nuclear extract was diluted 30-fold with Buffer. The resulting solution was added in an amount of 3 μL per well, and then incubation was performed at 37° C. for 2 hours.
3) Substrate was diluted 500-fold with Buffer. The resulting solution was added in an amount of 5 μL per well (the final concentration of the test compound was 30 μM), and then incubation was performed at 37° C. for 10 minutes.
4) Developer was diluted 20-fold with Buffer and Trichostatin A (2 μM) was added to it. The resulting solution was added in an amount of 10 μL per well, and then incubation was performed at room temperature for 15 minutes.
5) The fluorescence intensity of each well was measured using multilabel counter ARVO (manufactured by Wallac) with excitation at 360 nm and emission at 460 nm.
6) A control data was obtained from the same experiment except that Buffer containing 5% DMSO was added instead of the test compound solution as the above-mentioned procedure from 1) to 5).
7) A blank data was obtained from the same experiment except that Buffer containing 5% DMSO was added instead of the test compound solution and that Buffer was added instead of Hela nuclear extract as the above-mentioned procedure from 1) to 5).
Enzyme inhibitory rate (%) was calculated using the following equation. (Enzyme Inhibitory Rate(%))=100×[1−{(Fluorescence Intensity of Test Compound Solution)−(Florescence Intensity of Blank)}/{(Florescence Intensity of Control)−(Florescence Intensity of Blank)}] (Test Results)

Assay [2] deals with human trabecular meshwork cell line (TM-1 cells). The experiment in a line: Test for evaluation of effect of morphological change on trabecular meshwork cells (cell shape index, CSI). The format is cell-based. The settings on record: final concentration 10 μM, 24 hours incubation, Control 0.694, lower CSI indicates greater morphological changes. An excerpt:
Further, as a result of studying an effect morphological change of the present compound on trabecular meshwork cells, i.e., an effect of morphological change of the present compound on trabecular meshwork cells in an evaluation system using the cell shape index (hereinafter referred to as “CSI”) reported in The Journal of Clinical Investigation, 103, 1141-1150 (1999) as an index, it was found the present compound has an excellent effect of morphological change on trabecular meshwork cells.
As a method for evaluating a cellular morphological change, an evaluation system using the cell shape index (hereinafter referred to as “CSI”) as an index has been reported in The Journal of Clinical Investigation, 103, 1141-1150 (1999). Therefore, according to the method described in the above document, an effect of morphological change of the present compounds on trabecular meshwork cells was evaluated.
A human trabecular meshwork cell line (hereinafter referred to as “TM-1 cells”) reported in Investigative Ophthalmology & Visual Science, 43, 151-161 (2002) was used.
Culture medium 1: A reagent was prepared by adding fetal bovine serum (10%), L-glutamine (2 mM), amphotericin B ([…]), and gentamicin (25 μg/mL) to Dulbecco's Modified Eagle Medium (hereinafter referred to as “D-MEM”).
Culture medium 2: A reagent was prepared by adding fetal bovine serum (3%), L-glutamine (2 mM), amphotericin B (2.5 μg/mL), and gentamicin (25 μg/mL) were added to D-MEM.
Cell staining liquid: A mixed liquid of Calcein-AM (16 μM) and Hoechst 33342 (40 μM) was prepared by diluting a Calcein-AM solution (cytoplasmic staining reagent, manufactured by Dojindo Laboratories) and a Hoechst 33342 solution (nuclear staining reagent, manufactured by Dojindo Laboratories) with D-MEM containing L-glutamine (2 mM), amphotericin B (2.5 μg/mL), and gentamicin (25 μg/mL).
TM-1 cells subcultured at 37° C. in a 8% carbon dioxide gas atmosphere were treated with a trypsin/EDTA solution (0.05% trypsin and 0.53 mM tetrasodium ethylenediaminetetraacetate) at 24 hours before performing a drug treatment mentioned below and seeded on a 96-well culture plate. The culture medium 1 was used for the subculture of the cells. The culture medium 2 was used for the cell culture after seeding the cells on the plate.
A test compound was dissolved in DMSO, whereby a 5 mM solution was prepared. Then, the resulting solution was diluted with the culture medium 2, whereby a 200 μM test compound solution was prepared.
It has been reported that Y-27632 which is a Rho kinase inhibitor induces a morphological change in trabecular meshwork cells in Investigative Ophthalmology & Visual Science, 42, 137-144 (2001). Therefore, Y-27632 (produced according to the method described in WO 90/05723) was used as a positive control, and dissolved in DMSO in the same manner as the test compound, whereby a 5 mM solution was prepared, and then, the resulting solution was diluted with the culture medium 2, whereby a 200 μM positive control compound solution was prepared.
1) To a 96-well culture plate, a solution of TM-1 cells adjusted to a cell density of […] was added in an amount of 95 μL (1.5×10^4 cells) per well.
2) Incubation was performed at 37° C. in a 8% carbon dioxide gas atmosphere for 24 hours.
3) The test compound solution or positive control compound solution was added in an amount of 5 μL per well (the final concentration of the test compound or positive control compound was 10 μM). As a control, the culture medium 2 containing DMSO (4%) was added in an amount of 5 μL per well.
4) Incubation was performed at 37° C. in a 8% carbon dioxide gas atmosphere for 24 hours.
5) The cell staining liquid was added in an amount of 10 μL per well.
6) Incubation was performed at 37° C. in a 8% carbon dioxide gas atmosphere for 1 hour to stain the cells.
7) A 37% formaldehyde solution was added in an amount of 10 μL per well.
8) Incubation was performed at room temperature for 1 hour to fix the cells. […]

As to `CN(C)CCN(Cc1ccc(C(=O)Nc2cscc2N)nc1)C(=O)Nc1ccc2c(c1)OCCO2` [Compound No. 1-1, N-(4-Aminothiophen-3-yl)-5-[3-(2,3-dihydrobenzo[1,4]dioxin-6-yl)-1-(2-dimethylaminoethyl)ureidomethyl]pyridine-2-carboxylic acid amide], the “Enzyme Inhibitory Rate (%)” value in assay [1] was 97%. Also, in assay [2], the CSI is reported as 0.527. Turning to `CN(C)CCN(Cc1ccc(C(=O)Nc2cscc2N)nc1)C(=O)Nc1ccsc1` [Compound No. 1-7, N-(4-Aminothiophen-3-yl)-5-[1-(2-dimethylaminoethyl)-3-(thiophen-3-yl)ureidomethyl]pyridine-2-carboxylic acid amide], in assay [1], the “Enzyme Inhibitory Rate (%)” value was determined as 100%. Further, the CSI in assay [2] is 0.523.

In the case of `CN(C)CCN(Cc1ccc(C(=O)Nc2cscc2N)nc1)C(=O)NCCc1ccccc1` [Compound No. 1-8, N-(4-Aminothiophen-3-yl)-5-[1-(2-dimethylaminoethyl)-3-phenethylureidomethyl]pyridine-2-carboxylic acid amide], in assay [1], the “Enzyme Inhibitory Rate (%)” value was 96%. Moreover, in assay [2], the CSI came to 0.548. Consider `CN(C)CCN(Cc1ccc(C(=O)Nc2cscc2N)nc1)C(=O)Nc1ccc(F)c(F)c1` [Compound No. 1-18, N-(4-Aminothiophen-3-yl)-5-[3-(3,4-difluorophenyl)-1-(2-dimethylaminoethyl)ureidomethyl]pyridine-2-carboxylic acid amide], for which, in assay [1], the “Enzyme Inhibitory Rate (%)” value is 97%. This compound also displayed a CSI in assay [2] of 0.519. Consider `CN(C)CCCN(Cc1ccc(C(=O)Nc2cscc2N)nc1)C(=O)Nc1ccsc1` [Compound No. 1-24, N-(4-Aminothiophen-3-yl)-5-[1-(3-dimethylaminopropyl)-3-(thiophen-3-yl)ureidomethyl]pyridine-2-carboxylic acid amide], for which, in assay [1], the “Enzyme Inhibitory Rate (%)” value came out at 100%. In assay [2], this compound gave a CSI of 0.509. Regarding `Nc1cscc1NC(=O)c1ccc(CN(CCCN2CCOCC2)C(=O)NC2CCCC2)cn1` [Compound No. 1-34, N-(4-Aminothiophen-3-yl)-5-[3-cyclopentyl-1-[3-(morpholin-4-yl)propyl]ureidomethyl]pyridine-2-carboxylic acid amide], the “Enzyme Inhibitory Rate (%)” value in assay [1] was 97%. The compound also came in with a CSI in assay [2] of 0.516. `CC(C)NC(=O)N(CCCN1CCN(C)CC1)Cc1ccc(C(=O)Nc2cscc2N)nc1` [Compound No. 1-56, N-(4-Aminothiophen-3-yl)-5-[3-isopropyl-1-[3-(4-methylpiperazin-1-yl)propyl]ureidomethyl]pyridine-2-carboxylic acid amide]: in assay [1], the “Enzyme Inhibitory Rate (%)” value is 97%. Moreover, the CSI in assay [2] stood at 0.422. As to `Nc1cscc1NC(=O)c1ccc(CN(CCCCN2CCOCC2)C(=O)NCCc2ccccc2)cn1` [Compound No. 1-59, N-(4-Aminothiophen-3-yl)-5-[1-[4-(morpholin-4-yl)butyl]-3-phenethylureidomethyl]pyridine-2-carboxylic acid amide], the “Enzyme Inhibitory Rate (%)” value in assay [1] is recorded as 97%. Further, the CSI in assay [2] stood at 0.500. Turning to `Nc1cscc1NC(=O)c1ccc(CN(CCN2CCCC2)C(=O)NC2CCCC2)cn1` [Compound No. 1-71, N-(4-Aminothiophen-3-yl)-5-[3-cyclopentyl-1-[2-(pyrrolidin-1-yl)ethyl]ureidomethyl]pyridine-2-carboxylic acid amide], in assay [1], the “Enzyme Inhibitory Rate (%)” value is on record as 100%. The CSI in assay [2] worked out at 0.481. Take `CN1CCN(CCN(Cc2ccc(C(=O)Nc3cscc3N)nc2)C(=O)NCCc2ccc3c(c2)OCO3)CC1` [Compound No. 1-77, N-(4-Aminothiophen-3-yl)-5-[2-[3-(benzo[1,3]dioxol-5-yl)]ethyl-1-[2-(4-methylpiperazin-1-yl)ethyl]ureidomethyl]pyridine-2-carboxylic acid amide]: the “Enzyme Inhibitory Rate (%)” value in assay [1] was determined as 100%. Moreover, the CSI in assay [2] is reported as 0.515.

As to `CCOC(=O)CNC(=O)N(CCCN1CCOCC1)Cc1ccc(C(=O)Nc2cscc2N)nc1` [Compound No. 1-88, N-(4-Aminothiophen-3-yl)-5-[3-ethoxycarbonylmethyl-1-[3-(morpholin-4-yl)propyl]ureidomethyl]pyridine-2-carboxylic acid amide], in assay [1], the “Enzyme Inhibitory Rate (%)” value is 95%. In addition, in assay [2], the CSI is 0.539. Turning to `CN(C)CCN(Cc1ccc(C(=O)Nc2cscc2N)nc1)C(=O)Nc1nccs1` [Compound No. 1-103, N-(4-Aminothiophen-3-yl)-5-[1-(2-dimethylaminoethyl)-3-(thiazol-2-yl)ureidomethyl]pyridine-2-carboxylic acid amide], the “Enzyme Inhibitory Rate (%)” value in assay [1] is listed as 97%. The compound also showed a CSI in assay [2] of 0.496. On to `CN(C)CCN(Cc1ccc(C(=O)Nc2cscc2N)nc1)C(N)=O` [Compound No. 1-104, N-(4-Aminothiophen-3-yl)-5-[1-(2-dimethylaminoethyl)ureidomethyl]pyridine-2-carboxylic acid amide], for which, in assay [1], the “Enzyme Inhibitory Rate (%)” value was found to be 97%. In assay [2], the CSI was found to be 0.505.

Compound `C[C@@H](N)[C@H]1CC[C@H](C(=O)Nc2ccncc2)CC1` [Y-27632, reference compound] gave a CSI in assay [2] of 0.627.
